Source: patent publication US5741788A, “Heterocyclic compounds and their preparation and use” (Novo Nordisk A/S, priority 1994, dated 1998)
Structures can show the parent of a compound that is named as a salt. Where two headings read alike, the source gives them in different places.

How the values were obtained:
[1] = target: T1, M1-site (pirenzepine sensitive site) of muscarinic receptors (Rattus norvegicus, UniProt P08482); assay: inhibition of ^3 H-PRZ (pirenzepine, [N-methyl-^3 H]) binding to rat cerebral cortex membranes; design: species or system male Wistar rats
T1 construct: Fresh cortex (0.1-1 g) from male Wistar rats (150-200 g) is homogenized; from tissue; host or cells: cerebral cortex of male Wistar rats
T1 sequence (P08482 1-460): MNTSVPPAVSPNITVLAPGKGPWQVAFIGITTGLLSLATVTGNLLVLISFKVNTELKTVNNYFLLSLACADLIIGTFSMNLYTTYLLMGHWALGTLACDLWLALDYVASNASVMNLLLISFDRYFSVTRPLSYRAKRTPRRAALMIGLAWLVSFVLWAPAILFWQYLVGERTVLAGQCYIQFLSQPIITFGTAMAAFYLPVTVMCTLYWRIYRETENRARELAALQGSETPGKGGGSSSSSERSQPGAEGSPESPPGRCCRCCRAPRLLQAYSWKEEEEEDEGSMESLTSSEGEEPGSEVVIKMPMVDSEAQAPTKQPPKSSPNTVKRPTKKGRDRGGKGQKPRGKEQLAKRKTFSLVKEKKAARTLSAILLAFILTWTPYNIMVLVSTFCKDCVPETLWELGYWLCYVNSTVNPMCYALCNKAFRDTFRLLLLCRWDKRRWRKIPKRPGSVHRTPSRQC
Description: Furthermore the pharmacological properties of the compounds of the invention can also be illustrated by determining their capability to inhibit ^3 H-PRZ (pirenzepine, [N-methyl-^3 H]) binding to rat cerebral cortex membranes. Pirenzepine binds selectively to subtype of muscarinic receptors. Historically the type is named the M1 -site, whereas pirenzepine sensitive site would be more appropriate. Although selective for M1 -sites pirenzepine also interact with M2 -sites.
All preparations are performed at 0°-4° C. unless otherwise indicated. Fresh cortex (0.1-1 g) from male Wistar rats (150-200 g) is homogenized for 5-10 s. in 10 ml 20 mM Hepes pH: 7.4, with an Ultra-Turraxhomogenizer. The homogenizer is rinzed with 2×10 ml of buffer and the combined suspension centrifuged for 15 min at 40,000×g. The pellet is washed three times with buffer. In each step the pellet is homogenized as before in 3×10 ml of buffer and centrifuged for 10 min at 40,000×g.
The final pellet is homogenized in 20 mM Hepes pH: 7.4 (100 ml per g of original tissue) and used for binding assay. Aliquots of 0.5 ml is added 20 μl of test solution and 25 μl of ^3 H-Pirenzepine (1.0 nM, final conc.), mixed and incubated for 60 min at 20° C. Non-specificbinding is determined in triplicate using atropine (1 μg/ml, final conc.) as the test substance. After incubation samples are added 5 ml of ice-cold buffer and poured directly onto Whatman GF/C glass fiber filters inder suction and immediately washed 2 times with 5 ml of ice-cold buffer. The amount of radioactivity on the filters are determined by conventional liquid scintillation counting. Specific binding is total binding minus non-specific binding.
Test substances are dissolved in 10 ml water, at a concentration of 0.22 mg/ml. 25-75% inhibition of specific binding must be obtained before calculation of IC50.
The test value will be given as IC50 (the concentration (nM) of the test substance which inhibits the specific binding of ^3 H-PRZ by 50%).
(§1) IC50 =(applied test substance concentration)×(Cx /Co -Cx)nM
(§2) where Co is specific binding in control assays and Cx is the specific binding in the test assay. (The calculations assume normal mass-action kinetics).

[2] = target: muscarinic acetylcholine receptors; assay: inhibition of specific binding of ^3 H-Oxotremorine-M (^3 H-Oxo) to rat cortex homogenate; design: species or system male Wistar rats; details: 1.0 nM radioligand, 30 min at 25° C., pH 7.4
Description: The pharmacological properties of the compounds of the invention can be illustrated by determining their capability to inhibit the specific binding of ^3 H-Oxotremorine-M (^3 H-Oxo). Birdsdall N. J. M., Hulme E. C., and Burgen A. S. V. (1980). "The Character of Muscarinic Receptors in Different Regions of the Rat Brain". Proc. Roy. Soc. London (Series B) 207,1.
^3 H-Oxo labels muscarinic receptor in the CNS (with a preference for agonist domains of the receptors). Three different sites are labelled by ^3 H-Oxo. […] Using the present experimental conditions only the high and medium affinity sites are determined.
The inhibitory effects of compounds on ^3 H-Oxo binding reflects the affinity for muscarinic acetylcholine receptors.
All preparations are performed at 0°-4° C. unless otherwise indicated. Fresh cortex (0.1-1 g) from male Wistar rats (150-250 g) is homogenized for 5-10 s in 10 ml 20 mM Hepes pH: 7.4, with an Ultra-Turrax homogenizer. The homogenizer is rinsed with 10 ml of buffer and the combined suspension centrifuged for 15 min. at 40,000×g. The pellet is washed three times with buffer. In each step the pellet is homogenized as before in 2×10 ml of buffer and centrifuged for 10 min. at 40,000×g.
The final pellet is homogenized in 20 mM Hepes pH: 7.4 (100 ml per g of original tissue) and used for binding assay. Aliquots of 0.5 ml is added 25 ul of test solution and 25 ul of ^3 H-Oxotremorine (1.0 nM, final concentration) mixed and incubated for 30 min. at 25° C. Non-specific binding is determined in triplicate using arecoline (1 ug/ml, final concentration) as the test substance. After incubation samples are added 5 ml of ice-cold buffer and poured directly onto Whatman GF/C glass fiber filters under suction and immediately washed 2 times with 5 ml of ice-cold buffer. The amount of radioactivity on the filters are determined by conventional liquid scintillation counting. Specific binding is total binding minus non specific binding.
Test substances are dissolved in 10 ml water (if necessary heated on a steam-bath for less than 5 min.) at a concentration of 2.2 mg/ml. 25-75% inhibition of specific binding must be obtained before calculation of IC50.
The test value will be given as IC50 (the concentration (nM) of the test substance which inhibits the specific binding of ^3 H-Oxo by 50%).
as §1, §2

[3] = target: muscarinic receptor in the CNS; details: read-out: affinity of site labelled by ^3 H-Oxo, cited from earlier work

SMILES	IC50 [1]	^3 H-Oxo-M IC50 [2]	IC50 ([1]; rat cortex, 1.0 nM ^3 H-Pirenzepine, 60 min at 20° C., pH 7.4, read-out: ^3 H-Pz IC50)	Kd ([3]; first of three sites (high affinity))	Kd ([3]; second of three sites (medium affinity))	Kd ([3]; third of three sites, not determined under the present experimental conditions)
CN1C2CCC1c1c(sc3nsnc13)C2.O=C(O)C(=O)O (stereo not shown) [Compound 1, 6,8-Ethano-7-methyl-5,6,7,8-tetrahydro-1,2,5-thiadiazolo[3',4':4,5]thieno[3,2-c]pyridine oxalate]	> 1 µM	0.27 mg/L	–	–	–	–
C1Cc2sc3nsnc3c2CN1.O=C(O)C(=O)O [Compound 2, 5,6,7,8-Tetrahydro-1,2,5-thiadiazolo[3',4':4,5]thieno[3,2-c]pyridine oxalate]	–	0.0064 mg/L	0.284 µM	–	–	–
C1CC2CN(C1)Cc1c2sc2nsnc12.O=C(O)C(=O)O (stereo not shown) [Compound 3, 5,9-Methano-5,6,7,8,9,10-hexahydro-1,2,5-thiadiazolo[3',4':4,5]thieno[3,2-c]azocine oxalate]	0.026 µM	0.0022 mg/L	–	–	–	–
O=C(O)C(=O)O.c1cc2nsnc2c2c1CCNC2 [Compound 4, 6,7,8,9-Tetrahydro[1,2,5]thiadiazolo[3,4-h]isoquinoline oxalate]	0.255 µM	0.014 mg/L	–	–	–	–
CN1CCC2=C(C1)c1nsnc1SC2 [Compound 5, oxalate]	0.08 µM	0.014 mg/L	–	–	–	–
C[N+](C)(C)CC#CCN1CCCC1=O [^3 H-Oxo, ^3 H-Oxotremorine-M]	–	–	–	0.0018 µM	0.02 µM	3 µM
